Data taken from patent US4235776A, “Tetrahydro-2H-benzo[c]pyrroles” (Eli Lilly and Company, priority 1979, dated 1980).
Counter-ions that a name gives are not always drawn.

How the values were obtained:
mouse = assay: intraperitoneal toxicity in the mouse; format: in vivo
Description: In using the compounds of this invention to inhibit prolactin secretion or to treat Prakinson's syndrome or for other pharmacologic action, a pharmaceutically active compound according to Formula I above, or a salt thereof with a pharmaceutically-acceptable acid, is administered to a subject suffering from Parkinsonism or in need of having their prolactin level reduced in an amount effective to alleviate some of the symptoms of Parkinsonism or to reduce an elevated prolactin level. Oral administration is preferred. If parenteral administration is used, the injection is preferably by the subcutaneous route using an appropriate pharmaceutical formulation. […] In particular, with intravenous or intramuscular administration, a water soluble pharmaceutically-acceptable salt is employed. For oral administration, a pharmaceutically active compound according to Formula I either as the free base or in the form of a salt thereof can also be mixed with standard pharmaceutical excipients and loaded into empty telescoping gelatin capsules or pressed into tablets. The oral dosage range is from about 0.01 to 10 mg/kg of mammalian weight and the parenteral dose range from about 0.0025 to 2.5 mg/kg of mammalian weight.

prolactin = assay: inhibition of prolactin secretion in reserpine-treated male rats (serum prolactin); format: in vivo, Sprague-Dawley rat; conditions: intraperitoneal, one hour after treatment, reserpine-pretreated rats
Description: The compounds of this invention are also useful as prolactin inhibitors and as such can be employed in the treatment of inappropriate lactation, such as postpartum lactation, and of galactorrhea.
Adult male rats of the Sprague-Dawley strain weighing about 200 g. were housed in an air-conditioned room with controlled lighting (lights on 6 a.m.-8 p.m.) and fed lab chow and water ad libitum. Each rat received an intraperitoneal injection of 2.0 mg. of reserpine in aqueous suspension 18 hours before administration of the isoindole. The purpose of the reserpine was to keep prolactin levels uniformly elevated. The compounds under test were dissolved in water and were injected intraperitoneally at doses ranging from 5 mg/kg down to 50 mcg/kg. Each compound was administered at each dose level to a group of 10 rats, and a control group of 10 intact males received an equivalent amount of solvent. One hour after treatment all rats were killed by decapitation, and 150 μl aliquots of serum were assayed for prolactin.
The difference between the prolactin level of the treated rats and prolactin level of the control rats divided by the prolactin level of the control rats gives the percent inhibition of prolactin secretion attributable to the compounds of this invention. In the table, column 1 gives the name of the compound; and columns 2-4 the percent prolactin inhibition at the given dose level.

[1] = system: 6-hydroxydopamine-lesioned rats; assay: turning behavior in 6-hydroxydopamine-lesioned rats (dopamine agonist activity); format: in vivo, rat; conditions: 1 mg/kg intraperitoneal
From the text: In this test, nigro-neostriatal-lesioned rats are employed prepared by the procedure of Ungerstedt and Arbuthnott, Brain Res, 24, 485 (1970). A compound having dopamine agonist activity upon injection causes the rats to turn in circles contralateral to the side of the lesion. After a latency period, which varies from compound to compound, the number of turns is counted over a 15-minute period.

CCCN(CCC)C1CCc2c[nH]cc2C1 (racemic) [dl-5-di-n-propylamino-4,5,6,7-tetrahydro-2H-benzo[c]pyrrole maleate]
lethality (mouse; dosages of 100-300 mg/kg, intraperitoneal): fatal | deaths (mouse; intraperitoneal dosages of 10-30 mg/kg): no deaths | Percent Inhibition of Prolactin at a Given Dose Level (prolactin; 5 mg/kg): 91% | Percent Inhibition of Prolactin at a Given Dose Level (prolactin; 50 mcg/kg): 20% | Percent Inhibition of Prolactin at a Given Dose Level (prolactin; 500 mcg/kg): 47% | rats exhibiting turning behavior [1]: 1/3 | average turns per rat ([1]; turns counted over a 15-minute period after latency): 34 turns per rat

CCN(CC)C1CCc2c[nH]cc2C1 (racemic) [dl-5-diethylamino-4,5,6,7-tetrahydro-2H-benzo[c]pyrrole maleate]
Percent Inhibition of Prolactin at a Given Dose Level (prolactin; 5 mg/kg): 23% | Percent Inhibition of Prolactin at a Given Dose Level (prolactin; 500 mcg/kg): 25%
